Source: patent US10160771B2, “Hepatitis C virus inhibitors and uses thereof in preparation of drugs” (priority 2014, dated 2018)

Experiments:
[1] = system: HCV genotype 1b (HCV-1b) replicon cells; assay: HCV genotype 1b replicon luciferase assay (EC50); type: cell-based, hepatitis C virus genotype 1b (Con1 clone); conditions: 3 days, luciferase (Bright-Glo)
In short: (§1)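 H77-derived 1a (K1691R, K2040R, S2204I) or Con1-derived 1b (E1202G, T1280I, K1846T) luciferase replicon cells, 8000/well, exposed 3 days at 37° C. to 6-point 5-fold dilutions (top 100, 10 or 1 nM; 0.5% DMSO), in duplicate. Bright-Glo luminescence read; EC50 from nonlinear fit of % inhibition.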

[2] = system: HCV genotype 1a (HCV-1a) replicon cells; assay: HCV genotype 1a replicon luciferase assay (EC50); type: cell-based, hepatitis C virus genotype 1a (H77 clone); conditions: 3 days, luciferase (Bright-Glo)
In short: as §1

[3] = Cell Titer-fluor cell activity assay in HCV-1b replicon cells (CC50); type: cell-based
In short: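 Con1 genotype 1b replicon cells (E1202G, T1280I, K1846T adaptive mutations), 8000 cells/well, exposed to 6-point 5-fold dilutions from 100, 10 or 1 nM top concentration in 0.5% DMSO, duplicate wells, 3 days at 37 °C. Viability read by Cell Titer-fluor (Ex 405/Em 515 nm) after 30 min; CC50 from nonlinear fit of inhibition %.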

COC(=O)N[C@H](C(=O)N1CCC[C@H]1c1cnc(-c2ccc(-c3ccc(-c4ncc(C5C6CCC(C6)[C@@H]5C(=O)N(NC(=O)OC)C(C)C)[nH]4)cc3)cc2OC)[nH]1)C(C)C (stereo partly drawn) [AA_166_B]
EC50 ([1]; Hepatitis C virus, 72 h): 0.101 to 1 nM | EC50 ([2]; Hepatitis C virus, 72 h): 10 to 100 nM | CC50 at 3 days [3]: > 5 nM

COC(=O)N[C@H](C(=O)N1CCC[C@H]1c1ncc(-c2ccc(-c3ccc(-c4cnc([C@@H]5C6CCC(C6)[C@H]5C(=O)NCc5cccnc5C5CC5)[nH]4)cc3)cc2)[nH]1)C(C)C (stereo partly drawn) [AA_234_B]
EC50 ([1]; Hepatitis C virus, 72 h): 0.001 to 0.1 nM | EC50 ([2]; Hepatitis C virus, 72 h): 10 to 100 nM | CC50 at 3 days [3]: > 1 nM

COC(=O)NC(C(=O)N1CCCC1c1[nH]c(-c2ccc(-c3ccc(-c4cnc([C@@H]5CCCN5C(=O)[C@@H](NC(=O)OC)C(C)C)[nH]4)cc3)cc2)c2c1CCCC2)C1CCOC1 (stereo partly drawn) [AG_027]
EC50 ([1]; Hepatitis C virus, 72 h): 0.101 to 1 nM | EC50 ([2]; Hepatitis C virus, 72 h): 10 to 100 nM | CC50 at 3 days [3]: > 10 nM

COC(=O)N[C@H](C(=O)N1CCC[C@H]1c1ncc(-c2ccc(-c3ccc(-c4cnc(C5C6CCC(C6)[C@@H]5C(=O)NNc5cccnc5)[nH]4)cc3)cc2)[nH]1)[C@@H](C)OC (stereo partly drawn) [AA_258_B]
EC50 ([1]; Hepatitis C virus, 72 h): 1 to 10 nM | EC50 ([2]; Hepatitis C virus, 72 h): 10 to 100 nM | CC50 at 3 days [3]: > 1 nM

COC(=O)N[C@H](C(=O)N1CCC[C@H]1c1ncc(-c2ccc(-c3ccc(-c4[nH]c([C@@H]5CCCN5C(=O)[C@@H](NC(=O)OC)C(C)C)c5c4CCCC5)cc3)cc2)[nH]1)C(C)C [AG_015_A]
EC50 ([1]; Hepatitis C virus, 72 h): 0.001 to 0.1 nM | EC50 ([2]; Hepatitis C virus, 72 h): 10 to 100 nM | CC50 at 3 days [3]: > 1 nM

COC(=O)N[C@H](C(=O)N1CCC[C@H]1c1ncc(-c2ccc(-c3ccc(-c4cnc([C@@H]5C6CCC(C6)[C@H]5C(=O)NCc5cccnc5OC)[nH]4)cc3)cc2)[nH]1)C(C)C (stereo partly drawn) [AA_203_B]
EC50 ([1]; Hepatitis C virus, 72 h): 0.001 to 0.1 nM | EC50 ([2]; Hepatitis C virus, 72 h): 1 to 10 nM | CC50 at 3 days [3]: > 1 nM

COC(=O)N[C@H](C(=O)N1CCC[C@H]1c1ncc(-c2ccc(-c3ccc(-c4cnc([C@@H]5CCCC[C@H]5C(=O)NCc5cccnc5)[nH]4)cc3)cc2)[nH]1)C(C)C [AA_150_B]
EC50 ([1]; Hepatitis C virus, 72 h): 0.001 to 0.1 nM | EC50 ([2]; Hepatitis C virus, 72 h): 0.101 to 1 nM | CC50 at 3 days [3]: > 10 nM

COC(=O)N[C@H](C(=O)N1CCCC1c1ncc(-c2ccc(-c3ccc(-c4cnc([C@@H]5C6CCC(C6)C5C(=O)NCc5cccnc5)[nH]4)cc3)c(F)c2)[nH]1)[C@@H](C)OC (stereo partly drawn) [AA_280_A]
EC50 ([1]; Hepatitis C virus, 72 h): 0.001 to 0.1 nM | EC50 ([2]; Hepatitis C virus, 72 h): 1 to 10 nM | CC50 at 3 days [3]: > 1 nM

COC(=O)N[C@H](C(=O)N1CCC[C@H]1c1ncc(-c2ccc(-c3ccc(-c4cnc([C@@H]5[C@H]6CC[C@H](C6)[C@H]5C(=O)N[C@@H](C)c5cccnc5)[nH]4)cc3)cc2)[nH]1)C(C)C [AA_204_ENDOA2_A]
EC50 ([1]; Hepatitis C virus, 72 h): 0.001 to 0.1 nM | EC50 ([2]; Hepatitis C virus, 72 h): 0.001 to 0.1 nM | CC50 at 3 days [3]: > 1 nM

COC(=O)N[C@H](C(=O)N1CCC[C@H]1c1ncc(-c2ccc(-c3ccc(-c4cnc([C@H]5C6CCC(C6)[C@@H]5C(=O)NC(c5cccnc5)C(C)C)[nH]4)cc3)cc2)[nH]1)C(C)C (single isomer, unassigned) [AA_233_A]
EC50 [1]: 0.001 to 0.1 nM | EC50 [2]: 0.101 to 1 nM | CC50 at 3 days [3]: > 1 nM

COC(=O)N[C@H](C(=O)N1CCC[C@H]1c1ncc(-c2ccc(-c3ccc(-c4cnc([C@H]5CCCC[C@@H]5C(=O)NC5(c6cccnc6)CC5)[nH]4)cc3)cc2)[nH]1)C(C)C [AA_186]
EC50 ([1]; Hepatitis C virus, 72 h): 0.101 to 1 nM | EC50 ([2]; Hepatitis C virus, 72 h): 1 to 10 nM | CC50 at 3 days [3]: > 5 nM

COC(=O)N[C@H](C(=O)N1CCC[C@H]1c1ncc(-c2ccc(-c3ccc(-c4cnc([C@H]5C6CCC(C6)[C@@H]5C(=O)Nc5ccccc5)[nH]4)cc3)cc2)[nH]1)C(C)C (stereo partly drawn) [AA_237_A]
EC50 ([1]; Hepatitis C virus, 72 h): 0.101 to 1 nM | EC50 ([2]; Hepatitis C virus, 72 h): 10 to 100 nM | CC50 at 3 days [3]: > 1 nM

COC(=O)N[C@H](C(=O)N1CCC[C@H]1c1ncc(-c2ccc(-c3ccc(-c4cnc([C@H]5C6CCC(C6)[C@@H]5C(=O)NCc5ccc(N)cc5)[nH]4)cc3)cc2)[nH]1)[C@@H](C)OC (stereo partly drawn) [AA_227]
EC50 ([1]; Hepatitis C virus, 72 h): 0.101 to 1 nM | EC50 ([2]; Hepatitis C virus, 72 h): 10 to 100 nM | CC50 at 3 days [3]: > 1 nM

COC(=O)N[C@H](C(=O)N1CC2(CC2)C[C@H]1c1ncc(-c2ccc(-c3ccc(-c4[nH]c([C@@H]5CCCN5C(=O)[C@@H](NC(=O)OC)[C@@H](C)OC)c5c4COC5)cc3)cc2)[nH]1)[C@@H](C)OC [AG_116]
EC50 ([1]; Hepatitis C virus, 72 h): 0.001 to 0.1 nM | EC50 ([2]; Hepatitis C virus, 72 h): 0.001 to 0.1 nM | CC50 at 3 days [3]: > 1 nM

COC(=O)N[C@H](C(=O)N1CCC[C@H]1c1ncc(-c2ccc(-c3ccc(-c4cnc(C5C6CCC(C6)[C@H]5C(=O)NCc5cccnc5)[nH]4)cc3)cc2)[nH]1)C(C)C (stereo partly drawn) [AA_162_A]
EC50 ([1]; Hepatitis C virus, 72 h): 0.001 to 0.1 nM | EC50 ([2]; Hepatitis C virus, 72 h): 1 to 10 nM | CC50 at 3 days [3]: > 1 nM

COC(=O)N[C@H](C(=O)N1CCC[C@H]1c1ncc(-c2ccc(-c3ccc(-c4cnc(C5C6CCC(C6)[C@@H]5C(=O)NCc5ccco5)[nH]4)cc3)cc2)[nH]1)[C@@H](C)OC (stereo partly drawn) [AA_222_A]
EC50 ([1]; Hepatitis C virus, 72 h): 0.001 to 0.1 nM | EC50 ([2]; Hepatitis C virus, 72 h): 10 to 100 nM | CC50 at 3 days [3]: > 1 nM

COC(=O)N[C@H](C(=O)N1CCC[C@H]1c1ncc(-c2ccc(-c3ccc(-c4cnc([C@@H]5C6CCC(C6)[C@H]5C(=O)NC(CO)c5ccccn5)[nH]4)cc3)cc2)[nH]1)C(C)C (stereo partly drawn) [AA_243_B]
EC50 ([1]; Hepatitis C virus, 72 h): 0.001 to 0.1 nM | EC50 ([2]; Hepatitis C virus, 72 h): 0.101 to 1 nM | CC50 at 3 days [3]: > 1 nM
